In the assay the target is T1, Bromodomain-containing protein 9 [133-239] (Homo sapiens, UniProt Q9H8M2).
T1 construct: 133-239
T1 sequence (Q9H8M2 whole entry): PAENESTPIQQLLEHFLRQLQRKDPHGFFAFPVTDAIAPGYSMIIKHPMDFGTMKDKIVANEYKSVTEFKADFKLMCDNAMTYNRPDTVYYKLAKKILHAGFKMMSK
In words: BRD9 Bromodomain TR-FRET Competition Binding Assay. The method, then:
A mixture of biotinylated-ligand and SureLight Allophycocyanin-Streptavidin (APC-SA, PerkinElmer AD0201) in 50 mM HEPES (pH 7.4), 50 mM NaCl, 1 mM TCEP (pH 7), 0.01% (v/v) Tween-20, 0.01% (w/v) bovine serum albumin was added to a white 384-well PerkinElmer Proxiplate Plus plate. DMSO or 3-fold serially diluted compounds were then added to the Proxiplate followed by addition of Flag-BRD9. After a 10 minute incubation at room temperature, Eu-W1024 anti-FLAG (PerkinElmer, AD0273) was added.
On the technique in general: Time-resolved FRET reads energy transfer from a long-lived donor to a nearby acceptor.

The structures appear in SMILES notation.

As a reminder, the IC50 is the midpoint of a concentration-inhibition curve.

The compound `COc1cc(-c2cn(C)c(=O)c3cnccc23)cc(OC)c1CN(C)C(=O)CCCCCOc1cccc2c1C(=O)N(C1CCC(=O)NC1=O)C2=O` (configuration not stated) [US11773085, Compound D4] showed a half-maximal inhibitory concentration (IC50) of under 10 nM. `CCS(=O)(=O)N(C)Cc1c(OC)cc(-c2cn(C)c(=O)c3cnccc23)cc1OC` [US11773085, Compound B35]: the half-maximal inhibitory concentration (IC50) was under 10 nM.

(Values after BindingDB's records for patent US11773085 (Foghorn Therapeutics, 2023).)
